Literature values as cited in patent publication US20040077591A1, “Histone deacetylase inhibitors for the treatment of multiple sclerosis, amyotrophic lateral sclerosis and Alzheimer's Disease” (The Brigham and Women's Hospital, Inc., priority 2002, published 2004).

Tests used:
SMA-like mice = conditions: cited from earlier work
SMA lymphoid cell lines = conditions: cited from earlier work

For CCCC(=O)[O-].[Na+] [sodium butyrate], the “expression of SMN protein in spinal cord motor neurons” value (SMA-like mice; SMA-like mice) is listed as “increased expression of SMN protein”, the symptoms (SMA-like mice; SMA-like mice) is listed as “improved symptoms” and the “birth rate of severe types of SMA-like mice” value (SMA-like mice; heterozygous knock-out transgenic SMA-like mice bred) is listed as “decreased the birth rate”. For the same compound, the “amount of exon 7-containing survival motor neuron (SMN) protein” value (SMA lymphoid cell lines) was “effective at increasing”.
